Results as given in patent publication US8362067B2, “3-aminoalkyl-1,3-dihydro-2H-indol-2-one derivatives, preparation thereof and therapeutic use thereof” (Sanofi, priority 2008, dated 2013).
Structures can show the parent of a compound that is named as a salt.

Structure (SMILES) | melting point [°C]
CCOc1ccc(S(=O)(=O)N2C(=O)C(CCCN3CCC(O)CC3)(c3ccccc3F)c3cc(Cl)c(OC)cc32)cc1OC (stereo not shown) | 102
CCOc1ccc(S(=O)(=O)N2C(=O)C(CCCN3CCOCC3)(c3ccccc3F)c3cc(Cl)c(OC)cc32)cc1OC (stereo not shown) | 153
COc1ccc(S(=O)(=O)N2C(=O)C(CCCN3CCN(C)CC3)(c3ccccc3F)c3cc(Cl)c(OC)cc32)c(OC)c1 (stereo not shown) | 123
COc1cc2c(cc1OC)C(CCCN1CCN(C)CC1)(c1ccccc1F)C(=O)N2S(=O)(=O)c1ccc(OC(C)C)c(F)c1 (stereo not shown) | 74
COc1cc2c(cc1F)C(CCCN1CCN(C)CC1)(c1ccccc1F)C(=O)N2S(=O)(=O)c1ccc(OC(C)C)c(F)c1 (stereo not shown) | 72
COc1ccc(S(=O)(=O)N2C(=O)C(CCCN3CCN(C)CC3)(c3ccccc3F)c3cc(OC)c(OC)cc32)cc1C (stereo not shown) | 78
CCN(CC)C(=O)Nc1ccc(S(=O)(=O)N2C(=O)C(CCCN(C)C)(c3ccccc3F)c3cc(C)c(OC)cc32)cc1C (stereo not shown) | 98
CCN(CC)C(=O)Nc1ccc(S(=O)(=O)N2C(=O)C(CCCN(C)C)(c3ccccc3F)c3cc(C)c(OC)cc32)cc1F (stereo not shown) | 82
COc1cc2c(cc1Cl)C(CCCN1CCN(C)CC1)(c1ccccc1F)C(=O)N2S(=O)(=O)c1ccc(OC)c(OC)c1 (stereo not shown) | 90
COc1ccc(S(=O)(=O)N2C(=O)C(CCCN3CCCCC3)(c3ccccc3F)c3cc(Cl)c(OC)cc32)c(OC)c1 (stereo not shown) | 105

Other lines, results leading:

melting point [°C] | Structure (SMILES)
70 | COc1cc2c(cc1C)C(CCCN1CCN(C)CC1)(c1ccccc1F)C(=O)N2S(=O)(=O)c1ccc(OC(C)C)cc1 (stereo not shown)
72 | COc1cc2c(cc1F)C(CCCN1CCN(C)CC1)(c1ccccc1F)C(=O)N2S(=O)(=O)c1ccc(OC(C)C)cc1 (stereo not shown)
100 | COC(=O)c1ccc(F)c(C2(CCCN3CCN(C)CC3)C(=O)N(S(=O)(=O)c3ccc(OC(C)C)cc3)c3cc(OC)c(Cl)cc32)c1 (stereo not shown)
97 | COc1cc2c(cc1Cl)C(CCCN1CCN(C)CC1)(c1cc(CO)ccc1F)C(=O)N2S(=O)(=O)c1ccc(OC(C)C)cc1 (stereo not shown)
169 | COc1cc2c(cc1Cl)C(CCCN1CCN(C)CC1)(c1ccccc1F)C(=O)N2S(=O)(=O)c1ccc(O)cc1 (stereo not shown)
164 | COc1cc2c(cc1Cl)C(CCCN1CCN(C)CC1)(c1ccccc1F)C(=O)N2S(=O)(=O)c1ccc(OC(F)(F)C(F)F)cc1.Cl (stereo not shown)
156 | CCCCOc1ccc(S(=O)(=O)N2C(=O)C(CCCN3CCN(C)CC3)(c3ccccc3F)c3cc(Cl)c(OC)cc32)cc1 (stereo not shown) (as salt: HCl)
202 | COc1cc2c(cc1Cl)C(CCCN1CCCN(C)CC1)(c1ccccc1F)C(=O)N2S(=O)(=O)c1ccc(OC(C)C)cc1 (stereo not shown) (as salt: HCl)
125 | COc1cc2c(cc1Cl)C(CCCCCN(C)C)(c1ccccc1F)C(=O)N2S(=O)(=O)c1ccc(OC(C)C)cc1 (stereo not shown) (as salt: HCl)
203 | COc1cc2c(cc1Cl)C(CCCCCN1CCCCC1)(c1ccccc1F)C(=O)N2S(=O)(=O)c1ccc(OC(C)C)cc1 (stereo not shown) (as salt: HCl)
206 | COc1cc2c(cc1Cl)C(CCCN1CC[C@H](N)C1)(c1ccccc1F)C(=O)N2S(=O)(=O)c1ccc(OC(C)C)cc1 (stereo partly drawn) (as salt: HCl) [Compound No. 5, 3-{3-[(3S)-3-aminopyrrolidin-1-yl]propyl}-5-chloro-3-(2-fluorophenyl)-1-[(4-isopropoxyphenyl)sulfonyl]-6-methoxy-1,3-dihydro-2H-indol-2-one]
210 | CCOc1ccc(S(=O)(=O)N2C(=O)C(CCCN3CC[C@@H](N)C3)(c3ccccc3F)c3cc(Cl)c(OC)cc32)cc1OC (stereo partly drawn) (as salt: HCl) [Compound No. 6, 3-{3-[(3R)-3-aminopyrrolidin-1-yl]propyl}-5-chloro-1-[(4-ethoxy-3-methoxy-phenyl)sulfonyl]-3-(2-fluorophenyl)-6-methoxy-1,3-dihydro-2H-indol-2-one]
